Tests used:
subjects with MDD [1] = assay: MADRS total score, adjunctive aticaprant vs placebo in MDD (Example 8); details: for MADRS Total Score: Mean Change from Baseline (SD): aticaprant 10 mg adjunctive to SSRI/SNRI; for MADRS: LSMeans difference estimate, supplementary MMRM analysis (COVID-19 impact): data collected prior to 15 Mar. 2020
subjects with MDD [2] = assay: SHAPS total score (anhedonia), same study; format: in vivo, human; details: for SHAPS Total Score Change from Baseline LSMean Difference (SE) Treatment-Placebo: MMRM
Description: To assess a potential effect on anhedonia, an anhedonia scale may be used. For example, the Snaith-Hamilton Pleasure Scale (SHAPS) analysis is a validated scale for the measurement of anhedonia. The SHAPS is a subject completed scale in which subjects score whether or not they experience pleasure in performing a list of activities or experiences. The SHAPS is a self-reported 14-item instrument, developed for the assessment of hedonic capacity. Subjects score whether they experience pleasure in performing a list of activities or experiences. Subjects can rate the answers as 1˜4 where 1 indicates “Definitely agree”, 2 indicates “Agree”, 3 indicates “Disagree” and 4 indicates “Definitely disagree”. The subject's item responses are summed to provide a total score ranging from 14 to 56. A higher total SHAPS score indicates higher levels of current anhedonia. Physician/clinical judgment can be used to assess anhedonia separately or in conjunction with an anhedonia scale.
In some embodiments, the patient has moderate anhedonia. In other embodiments, the patient has severe anhedonia. An assessment of moderate or severe anhedonia is typically determined physician/clinical judgment and/or by one or more tests that provide insight into whether a patient has anhedonia. For example, the severity of the anhedonia may be determined using the SHAPS method. In some embodiments, a patient with moderate or severe anhedonia is considered to have a high level of anhedonia. For example, a patient with a SHAPS score of 38 or greater is considered to have moderate to severe anhedonia that can be considered a high level of anhedonia. In some embodiments, a high level of anhedonia is reflected by a SHAPS score of at least about 40, about 42, about 44, about 46, about 48, about 50, about 52, about 54, about 56, […]. A patient with mild or no anhedonia would be considered to have a low level of anhedonia that is assessed by physician/clinical judgment and/or one or more tests. For example, a patient with a SHAPS score of less than 38 is considered to have low anhedonia. In certain embodiments, a patient with mild anhedonia may have a SHAPS score of 20 to less than 38, for example, a SHAPS score of 20 to about 36, about 22 to about 36, about 24 to about 36, about 26 to about 36, about 26 to about 34, about 26 to about 32, about 26 to about 30, about 26 to about 28, about 28 to about 36, about 28 to about 36, about 30, to about 36, about 32 to about 36, about 34 to about 36, about 20 to about 34, about 22 to about 34, about 24 to about 34, about 26 to about 32, about 26 to about 30, about 26 to about 28, about 28 to about 36, about 28 to about 34, about 28 to about 32, about 28 to about 30, about 30 to about 36, about 30 to about 34, about 30 to about 32, about 32 to about 36, about 32 to about 34, or about 34 to about 36. Typically, a SHAPS score of less than 20 can be considered to correspond to normal hedonic functioning, and for purposes of this disclosure, would fall into the low category of anhedonia, e.g., a SHAPS score of less than 38.
The secondary objectives are: • i. […] To investigate the effect of aticaprant versus placebo on depression related anhedonia as assessed by the SHAPS. • iv.

[3] = eITT Analysis Set, High anhedonia (SHAPS Total Score at Treatment Baseline >=38), Treatment Week 6
[4] = fITT Analysis Set, High anhedonia (SHAPS Total Score at Treatment Baseline >=38), Treatment Week 6
[5] = fITT Analysis Set, Treatment Week 5
[6] = number of subjects, eITT Analysis Set, Treatment Baseline, N 60
[7] = number of subjects, eITT Analysis Set, Treatment Week 6, N 59
[8] = number of subjects, fITT Analysis Set, Baseline/Day 22 (before treatment), N 83
[9] = number of subjects, fITT Analysis Set, Treatment Baseline, N 83

Structure (SMILES): Cc1cc(C)cc(C2CCCN2Cc2ccc(Oc3ccc(C(N)=O)cc3F)cc2)c1 (stereo not shown) [aticaprant, 3-fluoro-4-4-2-(3,5-dimethylphenyl) pyrrolidin-1-yl-methylphenoxybenzamide]
- MADRS Total Score Effect size (subjects with MDD [1]; [3]): −0.38
- MADRS Total Score Mean Change to Placebo (SD pooled) (subjects with MDD [1]; [3]): −3.4 (8.98)
- MADRS Total Score Effect size (subjects with MDD [1]; eITT Analysis Set, Low anhedonia (SHAPS Total Score at Treatment Baseline >=20 and <38), Treatment Week 6): −0.11
- MADRS Total Score: Mean Change from Baseline (SD) (subjects with MDD [1]; eITT, Treatment Week 1): −3.3
- MADRS Total Score: Mean Change from Baseline (SD) (subjects with MDD [1]; eITT, Treatment Week 3): −5.7
- MADRS Total Score: Mean Change to Placebo (SD pooled) (subjects with MDD [1]; eITT, Treatment Week 4): −0.9 (7.00)
- MADRS Total Score: Mean Change from Baseline (SD) (subjects with MDD [1]; eITT, Treatment Week 4): −7.3
- MADRS Total Score: Mean Change from Baseline (SD) (subjects with MDD [1]; eITT, Treatment Week 5): −8.4
- MADRS Total Score: Mean Change from Baseline (SD) (subjects with MDD [1]; eITT, Treatment Week 6): −10.2 (8.44)
- MADRS: LSMeans difference estimate, supplementary MMRM analysis (COVID-19 impact) (subjects with MDD [1]; eITT): −3.0
- MADRS Total Score Effect size (subjects with MDD [1]; [4]): −0.51
- MADRS Total Score Mean Change to Placebo (SD pooled) (subjects with MDD [1]; [4]): −4.6 (9.03)
- MADRS Total Score Effect size (subjects with MDD [1]; fITT Analysis Set, Low anhedonia (SHAPS Total Score at Treatment Baseline >=20 and <38), Treatment Week 6): −0.29
- MADRS Total Score Change from Baseline LSMean Difference (SE) Treatment-Placebo (subjects with MDD [1]; fITT Analysis Set, Treatment Week 1, MMRM): −1.6 (1.03)
- MADRS Total Score Change from Baseline LSMean Difference (SE) Treatment-Placebo (subjects with MDD [1]; fITT Analysis Set, Treatment Week 3, MMRM): −1.9 (1.04)
- MADRS Total Score Change from Baseline LSMean Difference (SE) Treatment-Placebo (subjects with MDD [1]; fITT Analysis Set, Treatment Week 4, MMRM): −2.5 (1.04)
- MADRS Total Score Change from Baseline LSMean Difference (SE) Treatment-Placebo (subjects with MDD [1]; fITT Analysis Set, Treatment Week 5, MMRM): −2.4 (1.05)
- MADRS Total Score Change from Baseline LSMean Difference (SE) Treatment-Placebo (subjects with MDD [1]; fITT Analysis Set, Treatment Week 6, MMRM): −3.1 (1.05)
- MADRS Total Score: Mean Change to Placebo (SD pooled) (subjects with MDD [1]; fITT, Treatment Week 4): −2.3 (7.02)
- MADRS total score: mean change from treatment baseline (SD) (subjects with MDD [1]; fITT, Treatment Week 6): −9.7 (8.02)
- MADRS Total Score: Least Squares Mean Difference aticaprant vs placebo (subjects with MDD [1]; fITT, Treatment Week 6, MMRM): −3.1
- MADRS: LSMeans difference estimate, supplementary MMRM analysis (COVID-19 impact) (subjects with MDD [1]; fITT): −3.4
- SHAPS Total Score Change from Baseline LSMean Difference (SE) Treatment-Placebo (subjects with MDD [2]; eITT Analysis Set, Treatment Week 1): −0.8
- SHAPS Total Score Change from Baseline LSMean Difference (SE) Treatment-Placebo (subjects with MDD [2]; eITT Analysis Set, Treatment Week 3): −1.4
- SHAPS Total Score Change from Baseline LSMean Difference (SE) Treatment-Placebo (subjects with MDD [2]; eITT Analysis Set, Treatment Week 4): −1.4
- SHAPS Total Score Change from Baseline LSMean Difference (SE) Treatment-Placebo (subjects with MDD [2]; eITT Analysis Set, Treatment Week 5): −0.5
- SHAPS Total Score Change from Baseline LSMean Difference (SE) Treatment-Placebo (subjects with MDD [2]; eITT Analysis Set, Treatment Week 6): −0.7
- SHAPS Total Score Effect Size (subjects with MDD [2]; eITT Analysis Set, Treatment Week 6, negative favors aticaprant): −0.07
- SHAPS total score: mean change from treatment baseline (SD) (subjects with MDD [2]; eITT, Treatment Week 6): −4.6 (6.23)
- SHAPS total score: observed effect size (subjects with MDD [2]; eITT, Treatment Week 6): 0.07
- Frequency of Subjects: No Anhedonia (SHAPS Total Score < 20) (subjects with MDD [2]; fITT Analysis Set, Baseline/Day 22 (before treatment), N 83): 1.2%
- Frequency of Subjects: No Anhedonia (SHAPS Total Score < 20) (subjects with MDD [2]; fITT Analysis Set, Treatment Baseline, N 83 (Table 64)): 1.2%
- SHAPS Total Score Change from Baseline LSMean Difference (SE) Treatment-Placebo (subjects with MDD [2]; fITT Analysis Set, Treatment Week 1): −1.0 (0.72)
- SHAPS Total Score Change from Baseline LSMean Difference (SE) Treatment-Placebo (subjects with MDD [2]; fITT Analysis Set, Treatment Week 3): −1.4 (0.73)
- SHAPS Total Score Change from Baseline LSMean Difference (SE) Treatment-Placebo (subjects with MDD [2]; fITT Analysis Set, Treatment Week 4): −1.6 (0.73)
- SHAPS Total Score Mean Change from Baseline (SD) (subjects with MDD [2]; [5]): −4.3 (5.70)
- SHAPS Total Score Change from Baseline LSMean Difference (SE) Treatment-Placebo (subjects with MDD [2]; [5]): −0.8 (0.73)
- SHAPS Total Score Change from Baseline LSMean Difference (SE) Treatment-Placebo (subjects with MDD [2]; fITT Analysis Set, Treatment Week 6): −0.8 (0.73)
- Frequency of Subjects: High Level of Anhedonia (SHAPS Total Score >= 38) (subjects with MDD [2]; [6]): 26
- Frequency of Subjects: Low Level of Anhedonia Score < 20) Total Score < 38) (subjects with MDD [2]; [6]): 34
- Frequency of Subjects: No Anhedonia (SHAPS Total) (subjects with MDD [2]; [6]): 0
- Frequency of Subjects: High Level of Anhedonia (SHAPS Total Score >= 38) (subjects with MDD [2]; [7]): 8
- Frequency of Subjects: Low Level of Anhedonia Score < 20) Total Score < 38) (subjects with MDD [2]; [7]): 48
- Frequency of Subjects: No Anhedonia (SHAPS Total) (subjects with MDD [2]; [7]): 3
- Frequency of Subjects: Anhedonia (SHAPS Total Score >= 20) (subjects with MDD [2]; [8]): 82
- Frequency of Subjects: No Anhedonia (SHAPS Total Score < 20) (subjects with MDD [2]; [8]): 1
- Frequency of Subjects: High Level of Anhedonia (SHAPS Total Score >= 38) (subjects with MDD [2]; [9]): 30
- Frequency of Subjects: Low Level of Anhedonia (20 >= SHAPS Total Score < 38) (subjects with MDD [2]; [9]): 52
- Frequency of Subjects: No Anhedonia (SHAPS Total Score < 20) (subjects with MDD [2]; number of subjects, fITT Analysis Set, Treatment Baseline, N 83 (Table 64)): 1

Source: patent publication US12171743B2, “Forms of aticaprant” (Janssen Pharmaceuticals, Inc., priority 2022, dated 2024)
